Measurements taken from PMC7046148 (Scientific Reports, 2020).

Legend:
[1] = tested on: Gibco hiPSCs; experiment: LPM differentiation assay (FOXF1 high content imaging), Gibco hiPSCs; conditions: Homo sapiens, 48 h, read-out: IC50 (±SEM) in LPM differentiation assay
Procedure: (§8) hiPSCs (Gibco or XCL-1 clones) were grown in mTeSR-1 on Matrigel, passaged into small clumps with Versene (4.5 min under normal culture conditions), counted as a single-cell suspension as described above, and seeded as small clumps at approximately 10,000 cells/well (30,000 cells/cm^2, ~15% confluence) in 100 µL mTeSR1 on Matrigel-coated µClear® 96-well plates (Greiner) for 1 d under normal culture conditions. On the day after seeding, the medium was replaced with 100 µL/well of mTeSR-1 (control) or APEL2 + GSKi containing either DMSO or diluted compounds (for a final DMSO concentration of 0.2%). The same conditions were replenished the following day for a total of 2 d of differentiation, and the following day (3 d after seeding), the medium was aspirated, and hiPSCs were fixed in 10% NBF for 15 min at room temperature.
(§9) Immunofluorescence staining was carried out by fixing/permeabilizing cells overnight in blocking buffer containing 3% BSA (Sigma) in DPBS-T, which contains DPBS + Ca^2+//Mg^2+ with 0.3% Triton-X100 (Sigma). Fixed and permeabilized cells were incubated in primary antibodies diluted (as noted in Table 1) in antibody buffer, consisting of 1% BSA in DPBS-T, overnight at 4 °C.
(§10) Cells were washed in blocking buffer for >6 hours at 4 °C and subsequently incubated in secondary antibody diluted in antibody buffer overnight at 4 °C. Secondary antibodies were washed out in antibody buffer for >4 h at 4 °C, and hiPSCs were counterstained with DAPI (Fisher) at 10 µg/mL in DPBS-T for 2 h. hiPSCs were washed in DPBS-T for >2 h at 4 °C, and immediately before imaging, the DPBS-T was replaced with DPBS. […] Chemical dose-response experiments and experiments examining the time-course of marker expression during LPM differentiation were imaged at 10X magnification using the Cellomics ArrayScan or CellInsight Cx7 LZR High Content Screening Platform and HCS Studio Cell Analysis Software (Thermo Fisher). An artificial threshold was uniformly applied to all images to generate the percentage of DAPI+ nuclei that stained positively for FOXF1 or NANOG. Thresholding for FOXF1 and T was performed relative to undiffer-entiated hiPSCs, and thresholding for SALL4 and OCT4 was performed relative to a non-expressing cell type (human primary endothelial cells). Settings for image acquisition and processing were uniformly applied between XCL-1 clones. […] Experiments were repeated in quadruplicate unless otherwise stated, and data are presented as mean ± SEM. Nonlinear regression analysis was performed using the 4-parameter [inhibitor]-vs-response curve fitting algorithm in Prism (GraphPad).

[2] = tested on: XCL-1 hiPSC CRBN Mock; experiment: LPM differentiation assay (FOXF1 high content imaging), XCL-1 CRBN Mock clone; type: cell-based; conditions: Homo sapiens, 48 h, % FOXF1+ cells after 2 d in APEL2+GSKi, read-out: IC50 (±SEM) in LPM differentiation assay
Procedure: On the day after seeding, the medium was replaced with 100 µL/well of mTeSR-1 (control) or APEL2 + GSKi containing either DMSO or diluted compounds (for a final DMSO concentration of 0.2%). The same conditions were replenished the following day for a total of 2 d of differentiation, and the following day (3 d after seeding), the medium was aspirated, and hiPSCs were fixed in 10% NBF for 15 min at room temperature.
as §9, §10

[3] = tested on: XCL-1 hiPSC CRBN KO/KI; experiment: LPM differentiation assay (FOXF1 high content imaging), XCL-1 CRBN KO/KI clone; type: cell-based, human; conditions: for IC50: Homo sapiens, 48 h, XCL-1 CRBN KO/KI, % FOXF1+ cells after 2 d in APEL2+GSKi, read-out: IC50 (±SEM) in LPM differentiation assay
Procedure: On the day after seeding, the medium was replaced with 100 µL/well of mTeSR-1 (control) or APEL2 + GSKi containing either DMSO or diluted compounds (for a final DMSO concentration of 0.2%). The same conditions were replenished the following day for a total of 2 d of differentiation, and the following day (3 d after seeding), the medium was aspirated, and hiPSCs were fixed in 10% NBF for 15 min at room temperature. For time-course experiments, cells were fixed at the specified intervals after the start of LPM differentiation.
as §9
Cells were washed in blocking buffer for >6 hours at 4 °C and subsequently incubated in secondary antibody diluted in antibody buffer overnight at 4 °C. Secondary antibodies were washed out in antibody buffer for >4 h at 4 °C, and hiPSCs were counterstained with DAPI (Fisher) at 10 µg/mL in DPBS-T for 2 h. hiPSCs were washed in DPBS-T for >2 h at 4 °C, and immediately before imaging, the DPBS-T was replaced with DPBS. Initial characterization of LPM differentiation by immunofluorescence was carried out using the A1R confocal microscope (Nikon) equipped with 10X objective, and automated object analysis was carried out using NIS Elements v5 software (Nikon). Chemical dose-response experiments and experiments examining the time-course of marker expression during LPM differentiation were imaged at 10X magnification using the Cellomics ArrayScan or CellInsight Cx7 LZR High Content Screening Platform and HCS Studio Cell Analysis Software (Thermo Fisher). An artificial threshold was uniformly applied to all images to generate the percentage of DAPI+ nuclei that stained positively for FOXF1 or NANOG. Thresholding for FOXF1 and T was performed relative to undiffer-entiated hiPSCs, and thresholding for SALL4 and OCT4 was performed relative to a non-expressing cell type (human primary endothelial cells). Settings for image acquisition and processing were uniformly applied between XCL-1 clones. The capacity of all XCL-1 clones and Gibco hiPSCs to undergo LPM differentiation in the high content format was assessed by FOXF1 and NANOG immunostaining. […] Experiments were repeated in quadruplicate unless otherwise stated, and data are presented as mean ± SEM. Nonlinear regression analysis was performed using the 4-parameter [inhibitor]-vs-response curve fitting algorithm in Prism (GraphPad).
Using CRISPR/Cas9-mediated gene editing, both CRBN alleles were knocked out in XCL-1 hiPSCs cells, followed by the insertion at the AAVS1 locus of a transgene encoding human CRBN with E377V and V388I mutations (clone hereafter referred to as CRBN KO/KI).

[4] = tested on: XCL-1 hiPSC CRBN KO/KI; experiment: cells; type: cell-based; conditions: Homo sapiens, 72 h; XCL-1 CRBN KO/KI; 3 d differentiation; read-out: IC50 (±SEM) in SOX17 differentiation assay
Procedure: (§1) The assay was carried out as previously described with continuous dosing of chemical for 3 total days of differentiation. SOX17 staining and DAPI counter-staining were carried out as described, and assays were imaged via high content imaging. […]
(§2) Supplementary Figure 7. Dose-response characterization of the influence […]
(§3) of XCL-1 clones. High content imaging analysis of XCL-1 hiPSC clones that were differentiated for 3 days in the presence of compound and subsequently stained for SOX17 and counter-stained with DAPI. Untreated DMSO control is omitted. Data represent the mean +/- SEM %SOX17 cells
(§4) (relative to control) from 4 independent experiments. Nonlinear regression […]
(§5) variable slope plotting tool in GraphPad Prism. A-C: Dose-response […]
(§6) in cereblon mock (hollow circles) or CRBN KO/KI (red filled circles) clones. D- […]

[5] = tested on: XCL-1 hiPSC CRBN Mock; experiment: cells; type: cell-based; conditions: Homo sapiens, 72 h; XCL-1 CRBN Mock; 3 d differentiation; read-out: IC50 (±SEM) in SOX17 differentiation assay
Procedure: as §1, §2, §3, §4, §5, §6

[6] = tested on: XCL-1 hiPSC SALL4 Mock; experiment: cells; type: cell-based; conditions: Homo sapiens, 72 h; XCL-1 SALL4 Mock; 3 d differentiation; read-out: IC50 (±SEM) in SOX17 differentiation assay
Procedure: as §1, §2, §3, §4, §5, §6

[7] = tested on: XCL-1 hiPSC SALL4^G416A; experiment: cells; type: cell-based; conditions: Homo sapiens, 72 h; XCL-1 SALL4^G416A; 3 d differentiation; read-out: IC50 (±SEM) in SOX17 differentiation assay
Procedure: as §1, §2, §3, §4, §5, §6

[8] = biological target: T1, SALL4 (Homo sapiens, UniProt Q96SW2+Q9UJQ4); experiment: SALL4 nuclear protein expression (MFI) by high content imaging, Gibco hiPSCs; type: cell-based
T1 construct: Unmodified Gibco hiPSCs were either differentiated in APEL2 + GSKi or maintained in mTeSR1, and SALL4 nuclear protein expression was monitored; endogenous in cells; host or cells: Gibco hiPSCs; XCL-1 SALL4 mock hiPSC clone
Text: (§7) High content imaging analysis of SALL4 immunofluorescence with DAPI counterstaining in hiPSCs. […] Data represent the mean +/− SEM from 2 independent experiments.

[9] = biological target: T1, SALL4; experiment: SALL4 MFI by high content imaging, XCL-1 SALL4 mock hiPSCs; type: cell-based; conditions: SALL4 mock control hiPSCs, 8 h of treatment
Text: as §7

[10] = biological target: T2, SALL4^G416A (Homo sapiens, UniProt Q9UJQ4, G416A); experiment: SALL4 MFI by high content imaging, XCL-1 SALL4^G416A hiPSCs; type: cell-based; conditions: SALL4^G416A hiPSC clone, 8 h of treatment
T2 construct: parental hiPSCs were engineered to express a homozygous G416A mutation in the endogenous SALL4 locus; endogenous in cells; host or cells: XCL-1 SALL4^G416A hiPSC clone (1E6), CRISPR/Cas9 knock-in at the endogenous locus
Text: as §7

[11] = biological target: T3, human SALL4 (Homo sapiens, UniProt Q9UJQ4); experiment: Immunoblot of SALL4 degradation in Lenti-x 293 CRBN-/- cells expressing human CRBN variants; type: cell-based
T3 construct: expressed in transfected cells; host or cells: Lenti-x 293 CRBN CRISPR KO (CRBN-/-) cells stably expressing human SALL4, transiently transfected with FLAG-CRBN variants
Text: SALL4 were transiently transfected with vectors expressing GFP or human CRBN variants and treated with
CRBN-/- cells transfected with empty vector were used as a negative control. The cells were then lysed and
characterized by immunoblotting analysis for SALL4, ZFP91, GFP, CRBN, and β-actin.
CRBN CRISPR KO (CRBN -/-) cells were maintained in Dulbecco’s Modified Eagle’s medium (DMEM;
Invitrogen) supplemented with 10% fetal bovine serum (FBS; Invitrogen). All cell lines were confirmed
mycoplasma-negative using the MycoAlert Mycoplasma Detection Kit (Lonza).
CRBN-/- cells stably expressing human SALL4 was transiently transfected with 4 µg of pcDNA3-GFP, pcDNA3-
FLAG-CRBN WT (isoform 1),pcDNA3-FLAG-CRBN E377V (isoform 1) or pcDNA3-FLAG-CRBN V388I (isoform
Cells were then harvested and lysed, and
whole cell extract was subjected to immunoblotting analysis. Cells were washed with ice-cold 1X PBS and
lysed in 50mM Tris-HCl [pH 7.6], 150 mM NaCl, 1% Triton X-100, and 1x Complete ULTRA protease inhibitor
cocktail and PhosSTOP phosphatase inhibitor cocktail. Whole cell extracts were collected after
centrifugation at top speed for 10 minutes, resolved by sodium dodecyl sulfate polyacrylamide gel
electrophoresis, transferred onto a nitrocellulose membrane using the Turboblot system (Bio-Rad), and
probed with the indicated primary antibodies. Bound antibodies were detected with IRDye®-680 or -800 […]

[12] = tested on: XCL-1 hiPSC SALL4 Mock; experiment: LPM differentiation assay (FOXF1 high content imaging), XCL-1 SALL4 Mock clone; conditions: Homo sapiens, 48 h, read-out: IC50 (±SEM) in LPM differentiation assay
Procedure: as §8, §9, §10

[13] = tested on: XCL-1 hiPSC SALL4^G416A; experiment: LPM differentiation assay (FOXF1 high content imaging), XCL-1 SALL4^G416A clone; conditions: for IC50: Homo sapiens, 48 h, read-out: IC50 (±SEM) in LPM differentiation assay
Procedure: as §8, §9, §10
In addition, XCL-1 hiPSCs were engineered with CRISPR/Cas9 to express a homozygous SALL4 G416A mutation (hereafter referred to as the SALL4^G416A clone), and the homozygous SALL4 G416A mutation was confirmed by next-generation sequencing (Supplementary Fig. 2).

T1 sequence (Q9UJQ4 whole entry): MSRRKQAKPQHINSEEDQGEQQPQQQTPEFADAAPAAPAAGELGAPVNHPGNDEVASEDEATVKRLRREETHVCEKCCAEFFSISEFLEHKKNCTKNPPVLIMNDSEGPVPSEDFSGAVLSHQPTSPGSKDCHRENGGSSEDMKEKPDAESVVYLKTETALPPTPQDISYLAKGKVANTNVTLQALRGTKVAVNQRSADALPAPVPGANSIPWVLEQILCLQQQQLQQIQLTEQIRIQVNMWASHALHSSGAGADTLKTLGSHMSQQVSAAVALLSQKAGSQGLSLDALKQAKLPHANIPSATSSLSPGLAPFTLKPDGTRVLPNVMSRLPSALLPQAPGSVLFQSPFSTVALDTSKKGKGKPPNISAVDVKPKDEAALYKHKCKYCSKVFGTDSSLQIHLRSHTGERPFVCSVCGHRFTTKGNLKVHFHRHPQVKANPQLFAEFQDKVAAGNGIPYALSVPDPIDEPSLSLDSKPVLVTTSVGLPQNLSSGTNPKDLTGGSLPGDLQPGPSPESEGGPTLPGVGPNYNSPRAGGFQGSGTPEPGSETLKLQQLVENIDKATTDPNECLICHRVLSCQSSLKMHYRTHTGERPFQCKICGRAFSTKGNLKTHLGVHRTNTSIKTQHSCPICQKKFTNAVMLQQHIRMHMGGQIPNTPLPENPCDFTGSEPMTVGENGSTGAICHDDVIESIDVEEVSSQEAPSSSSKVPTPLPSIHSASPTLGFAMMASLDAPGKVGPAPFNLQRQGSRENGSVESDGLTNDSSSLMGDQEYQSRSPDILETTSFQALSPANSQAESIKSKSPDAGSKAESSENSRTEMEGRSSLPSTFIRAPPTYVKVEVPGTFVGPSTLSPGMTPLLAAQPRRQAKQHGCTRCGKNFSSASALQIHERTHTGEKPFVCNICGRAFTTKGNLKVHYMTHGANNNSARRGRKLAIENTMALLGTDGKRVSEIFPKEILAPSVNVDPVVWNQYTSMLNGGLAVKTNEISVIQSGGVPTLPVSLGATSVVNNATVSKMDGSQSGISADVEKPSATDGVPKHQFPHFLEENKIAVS
T1 sequence (Q96SW2 whole entry): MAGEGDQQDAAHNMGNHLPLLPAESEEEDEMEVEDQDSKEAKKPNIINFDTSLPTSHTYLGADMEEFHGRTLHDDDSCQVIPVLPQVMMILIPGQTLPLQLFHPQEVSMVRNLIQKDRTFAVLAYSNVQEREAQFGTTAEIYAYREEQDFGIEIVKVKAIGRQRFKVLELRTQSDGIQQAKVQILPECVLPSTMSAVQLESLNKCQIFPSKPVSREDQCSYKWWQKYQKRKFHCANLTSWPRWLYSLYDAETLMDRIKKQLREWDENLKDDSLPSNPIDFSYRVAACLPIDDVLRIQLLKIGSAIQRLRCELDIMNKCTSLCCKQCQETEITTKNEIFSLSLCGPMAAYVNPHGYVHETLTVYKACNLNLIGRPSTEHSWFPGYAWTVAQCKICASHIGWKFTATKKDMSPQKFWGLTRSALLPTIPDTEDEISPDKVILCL
T1 sequence (Q16531 whole entry partner): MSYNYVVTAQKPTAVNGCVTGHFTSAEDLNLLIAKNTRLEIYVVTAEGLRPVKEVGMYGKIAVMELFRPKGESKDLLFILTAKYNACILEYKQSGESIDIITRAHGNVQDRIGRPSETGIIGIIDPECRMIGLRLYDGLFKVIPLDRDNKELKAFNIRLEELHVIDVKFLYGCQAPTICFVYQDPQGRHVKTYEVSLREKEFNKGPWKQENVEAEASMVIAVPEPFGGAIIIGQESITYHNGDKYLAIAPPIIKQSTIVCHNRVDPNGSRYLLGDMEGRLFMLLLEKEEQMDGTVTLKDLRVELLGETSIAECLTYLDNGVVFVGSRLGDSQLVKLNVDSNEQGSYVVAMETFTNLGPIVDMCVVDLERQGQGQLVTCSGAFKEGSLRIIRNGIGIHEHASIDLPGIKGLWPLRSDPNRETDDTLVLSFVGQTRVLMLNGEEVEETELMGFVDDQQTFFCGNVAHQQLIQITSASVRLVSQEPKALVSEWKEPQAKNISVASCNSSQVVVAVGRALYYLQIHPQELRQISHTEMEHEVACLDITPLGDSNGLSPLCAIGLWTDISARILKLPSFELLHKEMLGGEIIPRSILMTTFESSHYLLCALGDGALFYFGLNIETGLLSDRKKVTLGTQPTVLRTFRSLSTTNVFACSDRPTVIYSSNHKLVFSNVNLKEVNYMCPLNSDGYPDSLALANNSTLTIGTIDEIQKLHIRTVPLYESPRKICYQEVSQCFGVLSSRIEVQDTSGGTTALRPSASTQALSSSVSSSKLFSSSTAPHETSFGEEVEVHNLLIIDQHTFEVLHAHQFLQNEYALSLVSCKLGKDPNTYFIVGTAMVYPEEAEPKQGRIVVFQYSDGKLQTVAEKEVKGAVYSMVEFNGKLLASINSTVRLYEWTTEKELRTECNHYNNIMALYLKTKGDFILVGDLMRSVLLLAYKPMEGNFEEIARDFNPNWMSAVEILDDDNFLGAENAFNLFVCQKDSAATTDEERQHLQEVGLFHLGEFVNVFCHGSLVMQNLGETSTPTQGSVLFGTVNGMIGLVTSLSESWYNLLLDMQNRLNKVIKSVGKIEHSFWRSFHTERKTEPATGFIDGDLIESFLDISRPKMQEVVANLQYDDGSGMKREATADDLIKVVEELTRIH
T3 sequence (Q96SW2 whole entry partner): as the sequence (Q96SW2 whole entry) above
T3 sequence (Q16531 whole entry partner): as the sequence (Q16531 whole entry partner) above
T3 sequence (Q9UJQ4 whole entry): as the sequence (Q9UJQ4 whole entry) above
T2 sequence (Q96SW2 whole entry partner): as the sequence (Q96SW2 whole entry) above
T2 sequence (Q16531 whole entry partner): as the sequence (Q16531 whole entry partner) above
T2 sequence (Q9UJQ4 whole entry G416A): as the sequence (Q9UJQ4 whole entry) above, with G416A counted along it

IC50 [1] [nM] | IC50 [3] [nM] | IC50 [4] [nM] | IC50 [7] [nM] | magnitude of the decrease in SALL4 MFI ([8]; Gibco hiPSCs, 8 h of treatment, dose-response) | effect on SALL4 MFI [9] | effect on SALL4 MFI [10] | SALL4 degradation in human cells expressing CRBN with the V388I mutation [11] | IC50 [13] [nM] | SMILES | IC50 [2] [nM] | inhibition of LPM differentiation at the highest concentration tested ([3]; 50 µM, CRBN KO/KI clone) | IC50 [5] [nM] | IC50 [6] [nM] | time-course of SALL4 MFI ([8]; 20 µM, Gibco hiPSCs in mTeSR1 or APEL2+GSKi, 2, 8 and 24 h after dosing) | IC50 [12] [nM] | inhibition of LPM differentiation at the two highest concentrations tested ([13]; SALL4^G416A clone)
160 ± 80 |  |  |  |  |  |  |  |  | Nc1cccc2c1CN(C1CCC(=O)NC1=O)C2=O (stereo not shown) [Lenalidomide, lenalidomide] |  |  |  |  |  |  | 
10 ± 10 | > 50000 | > 50000 | > 50000 | ~ 55% | potently reduced SALL4 MFI | unchanged | failed to induce SALL4 degradation | > 50000 | Nc1cccc2c1C(=O)N(C1CCC(=O)NC1=O)C2=O (stereo not shown) [Pomalidomide, pomalidomide] | 20 ± 10 | inhibited LPM differentiation albeit not to the same magnitude as control hiPSCs | 20 ± 20 | 10 ± 10 | rapid decline in SALL4 MFI 2 h after dosing | 90 ± 90 | modest inhibition of LPM differentiation
2760 ± 5580 | 790 ± 400 |  |  |  |  |  |  | 510 ± 100 | NC(=O)c1ccc(-c2nc(-c3ccc4c(c3)OCO4)c(-c3ccccn3)[nH]2)cc1 [SB431542] | 650 ± 180 |  |  |  |  | 630 ± 170 | 
